# According to patent US20050100519A1, “Topical L-carnitine compositions” (Lonza Inc., priority 2003, published 2005):
# “Also recorded” adds a separate entry of the source.
# Tests used:
# skin [1] = experiment: Exfoliating efficacy of topical creams by the dansyl chloride method (skin turnover time); assay type: in vivo, human
# Procedure: The exfoliating efficacy of topical L-carnitine compositions of varying pH was determined as follows. L-carnitine containing reparative/exfoliating creams with a UV sunscreen were prepared as described in Example 2, except (1) phase B included 10.00% urea, 3.0% Natrulon® H-10, and 45.50% deionized water, (2) phase C included (a) 5.6% L-carnitine, (b) q,s. of sodium hydroxide and hydrochloric acid to adjust the pH of the cream to 4, 5, 6, or 7, and (c) 20.1% deionized water.
# Each topical composition (creams) was tested as follows. The composition was applied twice daily to skin (approximately 0.2 g/10 cm^2) over a period of 20 days, and the exfoliation was measured using the dansyl chloride method.
# The dansyl chloride method is a method of measuring skin turnover time. The method involves first treating the skin with a fluorescent dye (namely, dansyl chloride) and then, with the aid of a UV light, observing the disappearance of the fluorescence over time. When the site no longer fluoresces, the skin is considered to have turned over.
# The exfoliating efficacy of the glycolic acid cream was compared to that of the L-carnitine creams at pH 4 and pH 7 described in Example 7 by the procedure described in Example 7.
# The exfoliating efficacy of topical compositions (all at pH 7) containing 2.8% or 5.6% L-carnitine or 2.8% or 5.6% racemic (DL) carnitine was determined by the method described in Example 7. The 5.6% L-carnitine composition tested was that described in Example 7. The 5.6% DL-carnitine composition was prepared as described in Example 7, replacing the 5.6% L-carnitine with 5.6% DL-carnitine. The 2.8% L-carnitine and 2.8% DL-carnitine compositions were prepared as described in Example 7, replacing the 5.6% L-carnitine with (1) 2.8% L-carnitine and 2.8% DL-carnitine, respectively, and (2) 2.8% deionized water. DL-carntine is a racemic mixture containing 50% L-carnitine and 50% D-carnitine.
# The exfoliating efficacy of topical compositions including (1) papain, (2) 5.6% L-carnitine, (3) 5.6% glycolic acid, or (4) papain with 5.6% L-carnitine was determined as follows.
# The compositions were tested by the procedure described in Example 7.
# skin [2] = experiment: Moisturizing efficacy: water content of the skin measured with a corneometer; assay type: in vivo, human; conditions: 5% in cream
# Procedure: Each composition was applied twice daily to skin (0.2 g/10 cm^2) over a period of 10 days, and the water content of the skin was measured with a corneometer. Untreated skin was also tested as a control.
Compound,"exfoliating efficacy compared with racemic (DL) carnitine (skin [1]; 2.8% or 5.6% creams, all at pH 7 (FIG. 3))","exfoliating efficacy, effect of composition pH (skin [1]; 5.6% L-carnitine cream at pH 4, 5, 6 or 7, applied twice daily over 20 days (FIG. 1))","exfoliating efficacy compared with glycolic acid (skin [1]; L-carnitine cream, alone or with papain, vs 5.6% glycolic acid cream pH 4.0 (FIG. 2, FIG. 4))",ability to exfoliate and reduce the time needed for skin turnover (skin [1]; pH 4-7),"Water content of the skin after 1 day of treatment (skin [2]; twice daily 0.2 g/10 cm^2, 1 day) [%]","Water content of the skin after 2 days of treatment (skin [2]; twice daily 0.2 g/10 cm^2, 2 days) [%]","Water content of the skin after 3 days of treatment (skin [2]; twice daily 0.2 g/10 cm^2, 3 days) [%]","Water content of the skin after 6 days of treatment (skin [2]; twice daily 0.2 g/10 cm^2, 6 days) [%]","Water content of the skin after 8 days of treatment (skin [2]; twice daily 0.2 g/10 cm^2, 8 days) [%]","Water content of the skin after 9 days of treatment (skin [2]; twice daily 0.2 g/10 cm^2, 9 days) [%]","Water content of the skin after 10 days of treatment (skin [2]; twice daily 0.2 g/10 cm^2, 10 days) [%]"
C[N+](C)(C)C[C@H](O)CC(=O)[O-] [L-carnitine],more effective as an exfoliant than racemic carnitine at the same concentration; also recorded: exfoliates skin more effectively and faster than racemic carnitine,"most effective at the optimal pH for enzymes, i.e., at a pH around 7; also recorded: exfoliates skin more effectively and faster in a topical composition at a pH of 7 than a similar composition at a pH of 4, 5, or 6",exfoliates skin more effectively and faster than glycolic acid,exhibits the ability to exfoliate and to significantly reduce the time needed for skin turnover,,,,,,,
decaglycerol,,,,,44.4,54.2,56.9,53.0,59.2,62.8,60.5
